{"source": "patent US20050180956A1", "about": "“SSAO enzyme substrates for vasorelaxation, and methods of use thereof” (priority 2004, published 2005)", "key": {"[1]": {"system": "human left internal mammary artery (LIMA)"}, "[2]": {"system": "human left internal mammary artery (LIMA)", "assay": "Vascular ring physiology, isolated human left internal mammary artery rings", "settings": "for response in HI K+-precontracted LIMA, % of HI K+ tension (contraction): n=9,3,6; for EC50: Homo sapiens; for % Response, contraction (C), LIMA / % Response, relaxation (R), LIMA: NE-precontracted (1 μM) LIMA, 10 min exposure to 1 mmol/L, percentage change of NE-precontraction tension; for effect of pretreatment on MA-induced relaxation: L-NAME 200 μmol/L and/or INDO 100 μmol/L"}, "[3]": {"molecular_target": "homogenized rat aortic SSAO activity (Rattus norvegicus, UniProt O08590)", "sequence (O08590 whole entry)": "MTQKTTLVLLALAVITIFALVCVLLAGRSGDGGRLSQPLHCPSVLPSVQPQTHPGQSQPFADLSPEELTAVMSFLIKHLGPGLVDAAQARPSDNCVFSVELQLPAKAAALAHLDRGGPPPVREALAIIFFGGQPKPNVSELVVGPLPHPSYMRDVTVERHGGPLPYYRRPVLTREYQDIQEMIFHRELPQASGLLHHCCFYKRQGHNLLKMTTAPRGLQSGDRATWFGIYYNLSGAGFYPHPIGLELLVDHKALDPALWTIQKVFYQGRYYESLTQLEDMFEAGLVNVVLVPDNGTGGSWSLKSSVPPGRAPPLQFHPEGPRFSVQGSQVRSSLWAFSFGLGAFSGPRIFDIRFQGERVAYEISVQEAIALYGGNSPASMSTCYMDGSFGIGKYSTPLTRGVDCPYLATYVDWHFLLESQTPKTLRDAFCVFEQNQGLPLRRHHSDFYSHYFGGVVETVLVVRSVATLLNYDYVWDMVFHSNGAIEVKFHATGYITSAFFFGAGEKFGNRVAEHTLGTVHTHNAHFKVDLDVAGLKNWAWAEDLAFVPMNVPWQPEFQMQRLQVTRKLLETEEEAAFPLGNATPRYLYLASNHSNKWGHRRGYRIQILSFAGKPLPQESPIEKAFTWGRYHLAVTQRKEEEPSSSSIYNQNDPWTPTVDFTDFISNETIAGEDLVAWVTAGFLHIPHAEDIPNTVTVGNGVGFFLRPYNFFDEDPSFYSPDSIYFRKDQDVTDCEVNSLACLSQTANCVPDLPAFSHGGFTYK", "settings": "read-out: Km for homogenized rat aortic SSAO activity; cited from earlier work"}, "human radial artery (RA)": {"system": "human radial artery (RA)", "assay": "Vascular ring physiology, isolated human radial artery rings"}, "cGMP level in human LIMA": {"system": "cGMP level in human LIMA", "assay": "cGMP ELISA assay in LIMA segments", "settings": "NE-precontracted LIMA, MA 1 mmol/L, 30-40 min, control 0.128 ± 0.034"}, "humans": {"system": "humans", "settings": "cited from earlier work"}, "[4]": {"molecular_target": "SSAO of human cerebral microvessels (Homo sapiens, UniProt Q16853)", "settings": "read-out: Km, human cerebral microvessels; cited from earlier work"}, "[5]": {"molecular_target": "SSAO of human umbilical artery (Homo sapiens, UniProt Q16853)", "settings": "read-out: Km, human umbilical artery; cited from earlier work"}, "[6]": {"molecular_target": "T1, SSAO activity in homogenized human LIMA (Homo sapiens, UniProt Q16853)", "T1 construct": "Blood vessel segments were homogenized in Sorensen's Na^+/K^+-phosphate buffered solution; from tissue; host or cells: human left internal mammary artery (LIMA), supernatant of homogenate", "T1 sequence (Q16853 1-763)": "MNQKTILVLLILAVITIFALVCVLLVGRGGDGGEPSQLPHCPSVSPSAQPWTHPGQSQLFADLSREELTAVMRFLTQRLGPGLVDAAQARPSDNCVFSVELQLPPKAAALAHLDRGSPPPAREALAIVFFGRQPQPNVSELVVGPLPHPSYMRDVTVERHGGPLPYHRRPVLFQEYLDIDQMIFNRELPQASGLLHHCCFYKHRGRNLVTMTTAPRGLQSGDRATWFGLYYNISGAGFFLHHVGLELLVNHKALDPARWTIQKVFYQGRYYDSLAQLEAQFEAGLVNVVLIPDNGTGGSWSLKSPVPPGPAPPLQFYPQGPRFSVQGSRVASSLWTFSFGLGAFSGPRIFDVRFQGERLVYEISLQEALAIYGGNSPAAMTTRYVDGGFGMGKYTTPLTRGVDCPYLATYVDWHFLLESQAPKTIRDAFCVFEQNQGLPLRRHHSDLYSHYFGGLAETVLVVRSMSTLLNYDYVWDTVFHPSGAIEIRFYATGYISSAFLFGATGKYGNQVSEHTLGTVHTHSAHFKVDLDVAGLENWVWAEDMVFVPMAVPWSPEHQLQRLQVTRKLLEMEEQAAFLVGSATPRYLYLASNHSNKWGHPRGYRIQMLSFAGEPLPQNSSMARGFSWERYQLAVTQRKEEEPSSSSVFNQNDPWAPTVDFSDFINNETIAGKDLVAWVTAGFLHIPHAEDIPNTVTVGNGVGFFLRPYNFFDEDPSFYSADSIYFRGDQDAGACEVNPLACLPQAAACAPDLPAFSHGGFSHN", "assay": "Radiometric SSAO assay (14C-benzylamine), homogenized LIMA", "type": "biochemical", "settings": "homogenate preincubated 20 min, 37° C.; n=25"}, "[7]": {"molecular_target": "T2, SSAO activity in homogenized human RA (Homo sapiens, UniProt Q16853)", "T2 construct": "Blood vessel segments were homogenized in Sorensen's Na^+/K^+-phosphate buffered solution; from tissue; host or cells: human radial artery (RA), supernatant of homogenate", "T2 sequence (Q16853 1-763)": "T1 sequence (Q16853 1-763)", "assay": "Radiometric SSAO assay (14C-benzylamine), homogenized RA", "type": "biochemical", "settings": "homogenate preincubated 20 min, 37° C.; n=10"}, "[8]": {"molecular_target": "T3, SSAO activity in homogenized human RSV (Homo sapiens, UniProt Q16853)", "T3 sequence (Q16853 1-763)": "T1 sequence (Q16853 1-763)", "assay": "Radiometric SSAO assay (14C-benzylamine), homogenized RSV", "type": "biochemical", "settings": "homogenate preincubated 20 min, 37° C.; n=5"}, "[9]": {"molecular_target": "T4, SSAO in human saphenous vein (Homo sapiens, UniProt Q16853)", "T4 sequence (Q16853 1-763)": "T1 sequence (Q16853 1-763)", "settings": "read-out: IC50 of SSAO inhibition in human saphenous vein, literature; cited from earlier work"}, "[10]": {"settings": "read-out: Apparent EC50, contraction (C), LIMA"}, "[11]": {"settings": "read-out: Apparent EC50, relaxation (R), LIMA"}, "[12]": {"settings": "NE-precontracted LIMA, repeated methylamine exposure, n=5"}}, "note": "Where two headings read alike, the source gives them in different places."}
{"smiles": "CC(=O)OCC[N+](C)(C)C", "note": "[ACh, acetylcholine]", "values": [{"measurement": "mean relaxation half time (t1/2), NE-precontracted LIMA", "setting": "[1]", "value": "1.07 ± 0.122", "unit": "min"}, {"measurement": "ACh-induced relaxation, ACh added after MA (post-MA ACh)", "setting": "[2]; NE-precontracted LIMA, ACh 1 μmol/L, n=20, mean ± SE", "value": "14±6", "unit": "%"}, {"measurement": "ACh-induced relaxation, ACh added before MA (pre-MA ACh)", "setting": "[2]; NE-precontracted LIMA, ACh 1 μmol/L, n=21, mean ± SE", "value": "25±6", "unit": "%"}]}
{"smiles": "C=O", "note": "[Formaldehyde, formaldehyde]", "values": [{"measurement": "response in HI K+-precontracted LIMA, % of HI K+ tension (contraction)", "setting": "[2]; 1 mmol/L, 10 min, mean ± SE", "value": "12.9±2.4", "unit": "%"}, {"measurement": "EC50", "setting": "[2]; [10]", "value": 315, "unit": "µM"}, {"measurement": "EC50", "setting": "[2]; [11]", "value": 315, "unit": "µM"}, {"measurement": "% Response, contraction (C), LIMA", "setting": "[2]; mean ± SE", "value": "3.7 ± 3.7", "unit": "%"}, {"measurement": "% Response, relaxation (R), LIMA", "setting": "[2]; mean ± SE", "value": "37.3 ± 18.6", "unit": "%"}]}
{"smiles": "OO", "note": "[H2O2, hydrogen peroxide]", "values": [{"measurement": "response in HI K+-precontracted LIMA, % of HI K+ tension (contraction)", "setting": "[2]; 1 mmol/L, 10 min, mean ± SE", "value": "21.1±7.7", "unit": "%"}, {"measurement": "EC50", "setting": "[2]; [10]", "value": "175 ± 58", "unit": "µM"}, {"measurement": "EC50", "setting": "[2]; [11]", "value": "162 ± 41", "unit": "µM"}, {"measurement": "% Response, contraction (C), LIMA", "setting": "[2]; mean ± SE", "value": "15.8 ± 5.3", "unit": "%"}, {"measurement": "% Response, relaxation (R), LIMA", "setting": "[2]; mean ± SE", "value": "55.6 ± 9.0", "unit": "%"}]}
{"smiles": "COc1ccc2c(c1)c(CC(=O)O)c(C)n2C(=O)c1ccc(Cl)cc1", "note": "[INDO, indomethacin]", "values": [{"measurement": "effect of pretreatment on MA-induced relaxation", "setting": "[2]; NE-precontracted LIMA, 20 min", "value": "neither INDO alone (100 μmol/L; 20 min) nor L-NAME+INDO pretreatment affected the MA-induced relaxation"}]}
{"smiles": "COC(=O)[C@@H](N)CCCNC(=N)N[N+](=O)[O-]", "note": "[L-NAME, N^ω-nitro-L-arginine methyl ester]", "values": [{"measurement": "effect of pretreatment on ACh-induced relaxation", "setting": "[2]; L-NAME 200 μmol/L, 20 min, subset of LIMA rings with relatively strong ACh relaxation", "value": "significantly inhibited the ACh-induced relaxation"}, {"measurement": "effect of pretreatment on MA-induced relaxation", "setting": "[2]; NE-precontracted LIMA, 20 min", "value": "had no effect on MA-induced relaxation"}]}
{"smiles": "C=CCN", "note": "[allylamine, reference compound]", "values": [{"measurement": "Km", "setting": "[3]", "value": 145, "unit": "µM"}]}
{"smiles": "CN", "note": "[methylamine]", "values": [{"measurement": "EC50", "setting": "human radial artery (RA); read-out: Apparent EC50, contraction (C), RA", "value": "65 ± 48", "unit": "µM"}, {"measurement": "EC50", "setting": "human radial artery (RA); read-out: Apparent EC50, relaxation (R), RA", "value": "280 ± 40", "unit": "µM"}, {"measurement": "[cGMP], LIMA, <50% relaxation subgroup", "setting": "cGMP level in human LIMA; vessels with <50% relaxation (n=3)", "value": "0.067 ± 0.029", "unit": "pmol/mg"}, {"measurement": "[cGMP], LIMA, >50% relaxation subgroup", "setting": "cGMP level in human LIMA; vessels with >50% relaxation (n=6)", "value": "0.227 ± 0.066", "unit": "pmol/mg"}, {"measurement": "[cGMP], RSV", "setting": "cGMP level in human RSV", "value": "0.109 ± 0.030", "unit": "pmol/mg"}, {"measurement": "fatalities after accidental exposure", "setting": "humans; 35 persons hospitalized 7-8 hours post-exposure to spilled purified liquid methylamine", "value": 6}, {"measurement": "persons with light to deep coma after accidental exposure", "setting": "humans; of 35 people", "value": "10 of 35"}, {"measurement": "Km", "setting": "[3]", "value": 247, "unit": "µM"}, {"measurement": "Km", "setting": "[4]", "value": 22, "unit": "µM"}, {"measurement": "Km", "setting": "[5]", "value": 832, "unit": "µM"}, {"measurement": "response in HI K+-precontracted LIMA, % of HI K+ tension (contraction)", "setting": "[2]; 1 mmol/L, 10 min, mean ± SE", "value": "1.7±3.9", "unit": "%"}, {"measurement": "EC50", "setting": "[2]; [11]", "value": "230 ± 30", "unit": "µM"}, {"measurement": "ACh relaxation after prior exposure, percentage reduction in HI K+ contraction", "setting": "[2]; LIMA n=7, ACh 1 μM after methylamine 1 mM 10 min (± SEMI 1 mM 15 min) and three PSS bath changes", "value": "20 ± 11", "unit": "%"}, {"measurement": "HI K+ contraction after prior exposure, percentage of control norepinephrine contraction", "setting": "[2]; LIMA n=7, HI K+ 100 mM after methylamine 1 mM 10 min (± SEMI 1 mM 15 min) and three PSS bath changes", "value": "102 ± 23", "unit": "%"}, {"measurement": "SNP relaxation after prior exposure, percentage reduction in HI K+ contraction", "setting": "[2]; LIMA n=7, SNP 100 μM after methylamine 1 mM 10 min (± SEMI 1 mM 15 min) and three PSS bath changes", "value": "90 ± 11", "unit": "%"}, {"measurement": "methylamine relaxation relative to ACh-induced relaxation", "setting": "[2]; LIMA, on average, regardless of order of addition", "value": "> 2", "unit": "times"}, {"measurement": "% Response, contraction (C), LIMA", "setting": "[2]; mean ± SE", "value": "0.6 ± 0.3", "unit": "%"}, {"measurement": "% Response, relaxation (R), LIMA", "setting": "[2]; mean ± SE", "value": "55.4 ± 3.9", "unit": "%"}, {"measurement": "% relaxation, 3rd relaxation", "setting": "[2]; NE-precontracted LIMA, repeated methylamine exposure, n=1", "value": 82.1, "unit": "%"}, {"measurement": "% relaxation, 1st relaxation", "setting": "[2]; [12]", "value": "72.0±7.5", "unit": "%"}, {"measurement": "% relaxation, 2nd relaxation", "setting": "[2]; [12]", "value": "60.8±12.6", "unit": "%"}, {"measurement": "% reduction of NE-contraction, methylamine post-NE", "setting": "[2]; NE-precontracted LIMA, 1 mmol/L, 10 min, n=9, mean ± SE", "value": "61±5", "unit": "%"}, {"measurement": "% Relaxation, LIMA, <50% relaxation subgroup", "setting": "[2]; NE-precontracted LIMA, MA 1 mmol/L, 30-40 min, vessels with <50% relaxation (n=3)", "value": "34.1 ± 7.1", "unit": "%"}, {"measurement": "% Relaxation, LIMA, >50% relaxation subgroup", "setting": "[2]; NE-precontracted LIMA, MA 1 mmol/L, 30-40 min, vessels with >50% relaxation (n=6)", "value": "87.8 ± 5.0", "unit": "%"}, {"measurement": "Apparent EC50, contraction (C), LIMA", "setting": "[2]; cumulative concentrations 1-1000 μM, uncontracted and NE-precontracted vessels pooled, mean ± SE", "value": "not observed"}, {"measurement": "% reduction of NE-contraction, methylamine pre-NE", "setting": "[2]; unstimulated LIMA exposed to 1 mmol/L, 10 min, before NE, n=5, mean ± SE", "value": "53±7", "unit": "%"}]}
{"smiles": "NNC(N)=O", "note": "[semicarbazide]", "values": [{"measurement": "IC50", "setting": "[6]", "value": "16.7 ± 19.5", "unit": "µM"}, {"measurement": "IC50", "setting": "[7]", "value": "21.2 ± 11.2", "unit": "µM"}, {"measurement": "IC50", "setting": "[8]", "value": 14.7, "unit": "µM"}, {"measurement": "IC50", "setting": "[9]", "value": 500, "unit": "µM"}, {"measurement": "mean % reversal of methylamine-induced relaxation", "setting": "[2]; NE-precontracted LIMA, within 10 min of addition of 1 mmol/L semicarbazide, n=2", "value": "63.0±15.8", "unit": "%"}, {"measurement": "effect of pretreatment on methylamine-induced relaxation in LIMA", "setting": "[2]; semicarbazide pretreatment 1 mmol/L, 15 min, no effect on NE contraction or ACh relaxation", "value": "significantly reduced the methylamine-induced relaxation"}]}
